Measured values as given in patent publication US20100184031A1, “NOVEL ADIPOCYTOKINE VISFATIN/PBEF1 IS AN APOPTOSIS ASSOCIATED FACTOR INDUCED IN MONOCYTES DURING IN VIVO HIV-1 INFECTION” (priority 2007, published 2010).

Tests used:
[1] = system: M-tropic R5 HIV lab-strain BaL; test: In vitro infection of PBMC cultures with HIV BaL, p24 ELISA / TCID50; type: cell-based
[2] = system: T-tropic X4 HIV lab-strain IIIB (=HxB2); test: In vitro infection with X4 HIV lab-strain IIIB, viral infectivity (TCID50); type: cell-based; details: same experiment as for BaL
Experimental: (§1) For infection experiments, MDM were plated in 96-well plates at 7.5×10^5 cells/ml and pre-treated with recombinant visfatin (200 ng/ml) for 1 hour at 37° C. and 5.0% CO2. Then, virus was added in six-fold and incubated for 2 hours, again at 37° C. and 5.0% CO2. Cells were then washed 3× to remove unbound virus and incubated for 14 days. Productive infection was monitored via an in-house-developed p24 antigen ELISA, as described elsewhere (Beirnaert et al., 1998).
This signifies that by selectively inhibiting R5 and not X4 HIV, visfatin contributes to the HIV co-receptor switch seen in ca. 50% of all patients in which the co-receptor usage of the dominant quasispecies within the patient switches from the moderately virulent R5 to the more aggressive X4, leading to increased progression to AIDS.

[3] = system: X4 strain of the 968 clone (968-1); test: In vitro infection of MDM with clinical isolate 968-1 (X4), viral titer (TCID50); type: cell-based, HIV
Description: (§2) For in vitro infection experiments, monocytes were obtained from buffy coats of healthy donors of the Blood Transfusion Center of Antwerp (Rode Kruis Vlaanderen, Belgium) by counterflow elutriation, as described previously (Van Herrewege et al., 2002). These cells were then differentiated to monocyte-derived macrophages (MDM) during seven days in RPMI 1640 medium (Bio-Whittaker, Verviers, Belgium) supplemented with 10% bovine fetal calf serum (Biochrom, Berlin, Germany), penicillin (100 U/ml) and streptomycin (100 μg/ml) (Roche Diagnostics, Mannheim, Germany) and 40 ng/ml M-CSF (PeproTech, London, United Kingdom) at 37° C. and 5.0% CO2. Half the medium was replaced after four days. Cells were then harvested and used for experiments in the same medium (without M-CSF).
as §1
R5 and X4 strains of the 968 viral clone were isolated from one patient, and differ only in co-receptor usage.

[4] = system: M-tropic R5 HIV lab-strain BaL; test: In vitro infection of monocyte-derived macrophages (MDM) with HIV BaL, p24 ELISA / TCID50; type: cell-based; details: MDM cultures
Description: as §2, §1
This viral infectivity can be quantified by calculating the TCID50 (Tissue Culture Infectious Dose 50%, i.e., the dose of virus that has a 50% chance of infecting a cell culture) values of the viral stocks. Addition of visfatin reduces the TCID50 values of BaL by approximately one log in both PBMC and MDM cultures, signifying a 90% reduction in viral infectivity (FIG. 7, Panel A).

[5] = PBMC cultures, 200 ng/ml PBEF1, 14 days of culture
[6] = 200 ng/ml PBEF1, 14 days of culture

Compound | infectivity of HIVBaL (TCID50) ([1]; PBMC cultures, 100 μM nicotinamide mononucleotide, 14 days of culture) | reduction in viral infectivity [1, 5] | reduction of TCID50 value of BaL [1, 5] | viral infectivity (productive infection, p24 secretion) ([1]; activated PBMC cultures, recombinant visfatin added prior to infection with BaL) | effect on viral infectivity of X4 strain IIIB [2] | viral titer of X4 clinical isolate in MDM [3, 6] | productive infection of MDM by X4 clinical isolate 968-1 ([3]; strain incapable of infecting untreated MDM) | reduction in viral infectivity [4, 6] | reduction of TCID50 value of BaL [4, 6] | viral infectivity (productive infection, p24 secretion) ([4]; recombinant visfatin (200 ng/ml) added prior to infection with BaL)
NC(=O)c1ccc[n+]([C@@H]2O[C@H](COP(=O)([O-])O)[C@@H](O)[C@H]2O)c1 [NMN, nicotinamide mononucleotide, reference compound] | reduces the infectivity | – | – | – | – | – | – | – | – | –
visfatin: Recombinant visfatin (PBEF1, nicotinamide phosphoribosyltransferase) protein obtained from PeproTech | – | 90% | approximately one | decreases the viral infectivity | does not mediate this effect | increased the viral titer | allowed the 968-1 clone to establish a productive infection | 90% | approximately one | decreases the viral infectivity
